{
  "source": "patent US11459375B2",
  "about": "“Cyclic peptides for the treatment of Graves' disease” (advanceCOR GmbH, priority 2017, dated 2022)",
  "key": {"[1]": {"format": "physicochemical", "text": "Peptide 836 is a 24-meric cyclic peptide corresponding to the eighth TSHR LRD loop, and peptide 829 (also 24-meric) to the first loop of the TSHR LRD."}, "[2]": {"test_system": "Ad-TSHR-immunized mice", "test": "ECG heart rates in Graves' disease mouse model", "format": "in vivo, BALB/c mice", "settings": "1 mg/kg IV 4-weekly, ECG under anaesthesia", "method": "(§1) In FIG. 7 the effect of the peptide therapy on heart rates at various times during the experiment (A), and on heart weights (B) and cardiac ventricular volumes (C) at the end of the experiment were evaluated in all animals. The measurements were carried out in Ad-TSHR-immunized mice treated by either 4-weekly injections with vehicle (0.9% NaCl, “Graves' no therapy”, n=25 mice), or administrations of 1 mg/kg body weight of peptide of the invention 836 (12 mice), or of peptide 829 (13 mice), or TSHR-Fc (18 mice). In addition, age-matched immunologically naïve unimmunized mice (“healthy”, 19 animals) were investigated. Data are represented as mean±SEM. Significance over time was tested by analysis of variance (ANOVA) of groups at given time points, and controlled by ANOVA for repeated measurements within one group, followed by LSD post-hoc testing. *p<0.05, and **p<0.005, compared to the TSHR-immunized group treated with only NaCl (“Graves' no therapy”).\nWhen mice were subjected to anaesthesia for immunisation, their heart function was monitored with an electrocardiogram (ECG amplifier module, Harvard Apparatus, Hugo Sachs electronics) and recorded with a special software, which allows to determine the heart rate from the ECG reading (Haemodyn, Hugo Sachs electronics). ECG was also performed in anaesthesia before animals were euthanized for histological exam at the end of the study."}, "[3]": {"test_system": "Ad-TSHR-immunized mice", "test": "thyroid size at end of experiment in Graves' disease mouse model", "format": "in vivo, BALB/c mice", "settings": "1 mg/kg IV 4-weekly", "method": "Representative images are shown. In FIG. 4B, the effects of peptide therapy on thyroid sizes were investigated at the end of the experiment. The measurements were carried out in Ad-TSHR-immunized mice treated by either 4-weekly injections with vehicle (0.9% NaCl, “Graves' no therapy”, n=25 mice), or administrations of 1 mg/kg body weight of peptide of the invention 836 (12 mice), or of peptide 829 (13 mice), or of TSHR-Fc (18 mice), or of control peptide 835 (13 mice). In addition, age-matched immunologically naïve unimmunized mice (“healthy”, 19 animals) were investigated. The mean thyroid sizes in mm^3 are shown with SEM. Differences between groups were tested by AVOVA followed by post hoc LSD testing. ** indicates statistical significance (p<0.001) compared to the TSHR-immunized group treated with only NaCl (“Graves' no therapy”).\n(§2) The study protocol used three 3-weekly immunizations (“initiation”) and followed by a “maintenance” phase with further regular 4-weekly boosts until the 9th immunisation, as described before (22). Mice were randomly assigned to therapeutic groups. Therapy (either 1 mg/kg body weight peptides or 0.9% NaCl vehicle control) was given 1 week after the 4th immunization by IV injection into a tail vein, and then continued at 4-weekly intervals, as described before for the treatment of anti-β1AR (16). The fusion protein TSHR-Fc was given IV at identical times at doses of 1 mg/kg, but had to be applied together with the histamine receptor blocker clemastin (Tavegil®) at a dose of 0.02 mg per mouse (25 g body weight) to avoid clinical symptoms of allergic reaction, which had been observed in initial pilot studies of TSHR-Fc administration in mice.\nAfter euthanasia, dissection of the thyroid glands was performed under a stereomicroscope, as described before (22). Briefly, cross cuts at the level above the larynx and below the seventh cartilage ring were made and the glands with the tracheae and oesophagi were removed from the necks. Tissue blocks were kept in 4% neutral para-formaldehyde (PFA), washed in PBS 3 times and embedded in optimum cutting temperature (OCT) formulation (Tissue-Tek® O.C.T.™ compound, VWR Chemicals, Leuven, Belgium). Consecutive 5 μm-thick cross sections were cut at a fixed distance of 500 μm using a Leica microtome CM 1850 Cryostat (temperature at −19° C.) and mounted on Thermo Polysine slides (Thermo Scientific, Cat J2800AMNZ). […] Thyroid volumes (mm^3) were calculated from the sum of the areas of each section over the whole cutting region. Myocardial volumes (mm^3) were calculated in a similar way as described for thyroid glands from the sum of the areas of each section over whole cutting region (5 to 6 slides, depending on respective size of the hearts). […]"}, "[4]": {"test_system": "Ad-TSHR-immunized mice", "test": "heart weights upon necropsy", "format": "in vivo, BALB/c mice", "settings": "1 mg/kg IV 4-weekly, necropsy at end of experiment", "method": "as §1\nDue to unavailability of some fine histological sections, analysis of this parameter in mice treated with other peptides could unfortunately not be completed."}, "[5]": {"test_system": "Ad-TSHR-immunized mice", "test": "serum thyroxin (T4) levels in Graves' disease mouse model", "format": "in vivo, BALB/c mice", "settings": "1 mg/kg IV 4-weekly, after start of therapy (week 11)", "method": "In FIG. 5 the effects of peptide therapy on serum thyroxin levels were evaluated. The measurements were carried out in Ad-TSHR-immunized mice treated by either 4-weekly injections with vehicle (0.9% NaCl, “Graves' no therapy”, n=25 mice), or administrations of 1 mg/kg body weight of peptide of the invention 836 (12 mice), or of peptide 829 (13 mice), or TSHR-Fc (18 mice), or of control peptide 835 (13 mice). In addition, age-matched immunologically naïve unimmunized mice (“healthy”, 19 animals) were investigated. Data are represented as means±SEM. Significance over time was tested by analysis of variance (ANOVA) of groups at given time points, and controlled by ANOVA for repeated measurements within one group, followed by LSD post-hoc testing. *p<0.05, and **p<0.005, compared to the TSHR-immunized group treated with only NaCl (“Graves' no therapy”).\nas §2\nTotal thyroxine (T4) was measured by immunoassay kit (#T4044T-100, Calbiotech Inc, Austin, Calif.) in duplicate determination."}},
  "data": [
    {"sequence": "NAFQGLCNETLTLKLYNNGFTSVQ [peptide 835]", "values": [
      {"measurement": "solubility in water", "setting": "[1]", "value": "easily soluble in water"},
      {"measurement": "heart rate", "setting": "[2]", "value": "did not show any effects"},
      {"measurement": "thyroid size", "setting": "[3]", "value": "did not show any effects"},
      {"measurement": "heart weights", "setting": "[4]", "value": "did not show any effects"},
      {"measurement": "serum thyroxin (T4) levels", "setting": "[5]", "value": "did not result in any effects"}
    ]}
  ]
}
